# Molecular target: T1, human orexin type 2 receptor (hOX2R) (Homo sapiens, UniProt O43614)
# T1 construct: expressed in transfected cells
# T1 sequence (O43614 1-444): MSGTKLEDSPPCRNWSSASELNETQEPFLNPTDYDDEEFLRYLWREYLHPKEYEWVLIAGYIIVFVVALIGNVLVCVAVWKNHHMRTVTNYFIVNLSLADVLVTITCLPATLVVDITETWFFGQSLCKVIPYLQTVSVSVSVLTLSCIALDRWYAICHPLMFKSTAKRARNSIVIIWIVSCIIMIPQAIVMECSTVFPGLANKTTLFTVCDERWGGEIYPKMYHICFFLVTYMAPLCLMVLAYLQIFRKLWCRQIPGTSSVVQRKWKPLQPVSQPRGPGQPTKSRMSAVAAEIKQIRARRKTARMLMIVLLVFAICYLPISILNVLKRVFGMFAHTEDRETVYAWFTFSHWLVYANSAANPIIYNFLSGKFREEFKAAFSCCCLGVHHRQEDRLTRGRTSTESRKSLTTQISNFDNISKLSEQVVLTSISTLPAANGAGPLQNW
# Experiment: Measurement of orexin type 2 receptor agonist activity (Fluo-4 calcium fluorescence, CHO cells forcibly expressing human OX2 receptor)
# Format: cell-based
# Conditions: test compound 3 μM, DMSO = 0%, orexin A (human) 10 nM = 100%
# Summary of the method: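 CHO-dhfr cells stably expressing human OX2 receptor, loaded with Fluo-4 AM in HBSS/HEPES/BSA with probenecid, then given test compound at 3 μM. Calcium fluorescence recorded for about 2 min 40 s by FDSS; activity normalized to DMSO (0%) and 10 nM human orexin A (100%).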
row,"OX2R agonist activity (3 μM, %) [%]",Structure (SMILES)
1,96,"CO[C@@H]1CN(C(=O)c2cc(C)ccc2C)C[C@H]1Oc1cccc(CS(=O)(=O)N2CCC23CN(C(C)=O)C3)c1 (relative stereo) [Example 90, trans-1-(1-((3-((1-(2,5-dimethylbenzoyl)-4-methoxypyrrolidin-3-yl)oxy)benzyl)sulfonyl)-1,6-diazaspiro[3.3]hept-6-yl)ethanone]"
2,70,"CO[C@@H]1CN(C(=O)c2cc(C)ccc2C)C[C@H]1Oc1cc(F)cc(CS(=O)(=O)N2CCCC2c2ccccn2)c1 (relative stereo) [Example 91, trans-(2,5-dimethylphenyl)(3-(3-fluoro-5-(((2-(pyridin-2-yl)pyrrolidin-1-yl)sulfonyl)methyl)phenoxy)-4-methoxypyrrolidin-1-yl)methanone]"
3,107,"CO[C@@H]1CN(C(=O)c2c(C)cccc2C)C[C@H]1Oc1cccc(NS(=O)(=O)N2CC3CC3C2)c1 (stereo partly drawn) [Example 120, N-(3-(((3R,4R)-1-(2,6-dimethylbenzoyl)-4-methoxypyrrolidin-3-yl)oxy)phenyl)-3-azabicyclo[3.1.0]hexane-3-sulfonamide]"
4,102,"COc1nccc(C)c1C(=O)N1C[C@@H](OC)[C@H](Oc2cccc(CS(=O)(=O)N(C)C3CCOCC3)c2)C1 (relative stereo) [Example 161, trans-1-(3-((4-methoxy-1-((2-methoxy-4-methylpyridin-3-yl)carbonyl)pyrrolidin-3-yl)oxy)phenyl)-N-methyl-N-(tetrahydro-2H-pyran-4-yl)methanesulfonamide]"

# Source: US11059780B2, “Substituted pyrrolidine compound and use thereof” (Takeda Pharmaceutical Company Limited, priority 2017, dated 2021)
